Measured values reported in patent publication US20240165185A1, “COMBINATION OF A MYRTLE EXTRACT AND A TRIPTERYGIUM WILFORDII EXTRACT FOR COMBATING C. ACNES-INDUCED INFLAMMATION” (priority 2021, published 2024).

Assays:
Type in all cases: cell-based
[1] = test system: production of IL-8 by dendritic cells derived from monocytes; experiment: Inhibition of IL-8 production by monocyte-derived dendritic cells stimulated with C. acnes membranes; conditions: Homo sapiens, Dendritic cell; C. acnes phylotype IA1 membranes, 24 hours stimulation; dexamethasone 300 ng/ml, myrtle extract 10 μg/ml, Trip extract 25 μg/ml, combination 10 and 25 μg/ml; mean of 3 experiments
Protocol: (§1) The experiments were performed on co-cultures of immature dendritic cells derived from monocytes, at a final concentration of 1.10^5 cells/ml/well and biofilms or membranes of C. acnes of phylotype IA1 . The monocytes are purified from human blood by negative selection (The EasySep™ Human Monocyte Enrichment Kit, StemCell).
(§2) On Day 0, the monocytes are incubated in a differentiation medium (Gibco Roswell Park Memorial Institute (RPMI), 10% v/v foetal bovine serum (FBS) that has been decomplemented (heated to 56° C. for 30 minutes), 50 ng/ml IL-4 and 100 ng/ml Recombinant Human Granulocyte Macrophage Colony-Stimulating Factor (GM-CSF)). On the 3rd day of culture, half of the medium is replaced by fresh medium. On day 6, the immature dendritic cells are characterised by flow cytometry and stimulated by a biofilm or membranes of C. acnes.
(§3) The membranes of C. acnes are purchased from the Icare laboratory (Saint-Beauzire, France).
The stimulation of the immature dendritic cells derived from monocytes by the membranes of C. acnes is carried out with a dilution to 1/20 of a solution of membranes in the culture medium (RPMI+10% v/v FBS) at a concentration of 0.15 mg/ml. […]
Several cytokines are evaluated in this study. IL-6, IL-8, IL-10, and IL-12p40; these cytokines are quantified in multiplex using the Luminex technology (Bioplex 200, Biorad).

[2] = test system: production of IL-10 by dendritic cells derived from monocytes; experiment: Inhibition of IL-10 production by monocyte-derived dendritic cells stimulated with C. acnes membranes; conditions: Homo sapiens, Dendritic cell; C. acnes phylotype IA1 membranes, 24 hours stimulation; dexamethasone 300 ng/ml, myrtle extract 10 μg/ml, Trip extract 25 μg/ml, combination 10 and 25 μg/ml; mean of 3 experiments
Protocol: as §1, §2, §3
(§4) The stimulation of the immature dendritic cells derived from monocytes by the membranes of C. acnes is carried out with a dilution to 1/20 of a solution of membranes in the culture medium (RPMI+10% v/v FBS) at a concentration of 0.15 mg/ml.
(§5) The myrtle extract used in this study is prepared according to example 1. This extract is solubilised and stored at […] in ethanol (10 mg of dry extract prepared according to example 1, in 1 ml of ethanol). […]

[3] = test system: production of IL-10 by dendritic cells derived from monocytes; experiment: Inhibition of IL-10 production by monocyte-derived dendritic cells stimulated with biofilm of C. acnes; conditions: Homo sapiens, Dendritic cell; biofilm of C. acnes phylotype IA1, MOI close to 100, 24 hours stimulation; dexamethasone 300 ng/ml, combination 10 and 25 μg/ml; mean of 3 experiments
Protocol: as §1, §2
The myrtle extract used in this study is prepared according to example 1. This extract is solubilised and stored at […] in ethanol (10 mg of dry extract prepared according to example 1, in 1 ml of ethanol). The concentration tested is 10 μg/ml.
The extract of Tripterygium wilfordii (Trip extract below) used in this study is prepared according to example 2.

[4] = test system: production of IL-6 by dendritic cells derived from monocytes; experiment: Inhibition of IL-6 production by monocyte-derived dendritic cells stimulated with C. acnes membranes; conditions: Homo sapiens, Dendritic cell; C. acnes phylotype IA1 membranes, 24 hours stimulation; dexamethasone 300 ng/ml, myrtle extract 10 μg/ml, Trip extract 25 μg/ml, combination 10 and 25 μg/ml; mean of 3 experiments
Protocol: as §1, §2, §3, §4, §5

[5] = test system: production of IL-12p40 by dendritic cells derived from monocytes; experiment: Inhibition of IL-12p40 production by monocyte-derived dendritic cells stimulated with C. acnes membranes; conditions: Homo sapiens, Dendritic cell; C. acnes phylotype IA1 membranes, 24 hours stimulation; dexamethasone 300 ng/ml, myrtle extract 10 μg/ml, Trip extract 25 μg/ml, combination 10 and 25 μg/ml; mean of 3 experiments
Protocol: as §1, §2, §3, §4, §5

Structure (SMILES): C[C@@H]1C[C@H]2[C@@H]3CCC4=CC(=O)C=C[C@]4(C)[C@@]3(F)[C@@H](O)C[C@]2(C)[C@@]1(O)C(=O)CO [Dexamethasone, dexamethasone]
- inhibition at 0.3 µg/mL [1]: 47.6%
- inhibition at 0.3 µg/mL [2]: 41.7%
- inhibition at 0.3 µg/mL [3]: 38.6%
- inhibition at 0.3 µg/mL [4]: 76.8%
- inhibition at 0.3 µg/mL [5]: 79.5%
